Measured values: US11466012B2, “Tetrahydroisoquinoline compounds” (ALLINKY BIOPHARMA, priority 2018, dated 2022)

Tests used:
Type in all cases: cell-based
[1] = test system: A549 lung carcinoma cell line bearing KRas^G12S oncogenic mutation; test: Cell proliferation inhibition (MTS), A549; settings: Homo sapiens
Experimental: (§1) • Cell line #1: A549. Lung carcinoma cell line bearing KRas^G12S oncogenic mutation • Cell line #2: H358. non-small cell lung cancer line bearing KRas^G12C oncogenic mutation • Cell line #3: PANC-1. epithelioid carcinoma of the pancreas cell line bearing KRas^G12D oncogenic mutation • Cell line #4: RPMI. myeloma cell line bearing KRas^G12A oncogenic mutation
(§2) Cell lines were cultured in DMEM or RPMI-1640 supplemented with FBS 10%. In order to assess the antiproliferative effect of compounds, cells were seeded at a density of 1.8×10^3, 6.2×10^3, 7.8×10^3, 21×10^3 and 2×10^3 cells/cm^2, respectively, in tissue culture microplates and were incubated in humidified atmosphere at 5% CO2. 24 h later, compounds dissolved in DMSO 100% were added for different final concentrations ranging between 0.1 and 50 μM for a final DMSO concentration of 0.5% and the plates were incubated for another 72 h. After incubation, proliferation was quantified using CellTiter 96® Aqueous Non-Radioactive Cell Proliferation Assay-MTS (Promega #G5421) following manufacturer instructions. Amount of 490 nm absorbance is directly proportional to the number of living cells. Absorbance was recorded with a BMG Fluostar Optima Microplate Reader and normalized to control with vehicle.

[2] = test system: PANC-1 epithelioid carcinoma of the pancreas cell line bearing KRas^G12D oncogenic mutation; test: Cell proliferation inhibition (MTS), PANC-1; settings: Homo sapiens
Experimental: as §1, §2

[3] = test system: RPMI-8226 myeloma cell line bearing KRas^G12A oncogenic mutation; test: Cell proliferation inhibition (MTS), RPMI-8226; settings: Homo sapiens
Experimental: as §1, §2

[4] = test system: H358 non-small cell lung cancer line bearing KRas^G12C oncogenic mutation; test: Cell proliferation inhibition (MTS), H358; settings: Homo sapiens, NCI-H358
Experimental: as §1, §2

[5] = 72 h incubation, MTS, compounds 1-53, median from experimental results
[6] = compounds 54-63, based on estimations and/or preliminary experimental results

Structure (SMILES) | IC50 [1, 5] [nM] | IC50 [2, 5] [nM] | IC50 [3, 5] [nM] | IC50 [4, 5] [nM] | IC50 [1, 6] [nM] | IC50 [2, 6] [nM] | IC50 [3, 6] [nM] | IC50 [4, 6] [nM]
Cc1ccc(C2c3cc(OCCc4cccc(O)c4)c(O)cc3CCN2C(=O)NCc2cocn2)c(C)c1 (stereo not shown) [Compound 25] | 550 | 530 | 580 | 520 |  |  |  | 
COc1cc2c(cc1OCCc1cccc(C(N)=O)c1)C(c1ccc(C)cc1C)N(C(=O)NCc1cocn1)CC2 (stereo not shown) [Compound 27] | 1020 | 1330 | 980 | 1120 |  |  |  | 
Cc1ccc(C2c3cc(OCCc4cccc(C(N)=O)c4)c(C(N)=O)cc3CCN2C(=O)NCc2cocn2)c(C)c1 (stereo not shown) [Compound 28] | 1560 | 2010 | 1020 | 1230 |  |  |  | 
COc1cc2c(cc1OCCc1cccc(O)c1)C(c1ccc(C)cc1Cl)N(C(=O)NCc1cocn1)CC2 (stereo not shown) [Compound 29] | 760 | 680 | 690 | 960 |  |  |  | 
COc1cc2c(cc1OCCc1cccc(C(=O)O)c1)C(c1ccc(C)cc1C)N(C(=O)NCc1cocn1)CC2 (stereo not shown) [Compound 31] | 2070 | 1830 | 1910 | 2110 |  |  |  | 
Cc1ccc(C2c3cc(OCCc4cccc(O)c4)c(C(=O)O)cc3CCN2C(=O)NCc2cocn2)c(C)c1 (stereo not shown) [Compound 32] | 440 | 490 | 520 | 310 |  |  |  | 
Cc1ccc(C2c3cc(OCCc4cccnc4)c(C(N)=O)cc3CCN2C(=O)NCc2cocn2)c(C)c1 (stereo not shown) [Compound 34, 1-(2,4-dimethylphenyl)-N2-(oxazol-4-ylmethyl)-7-(2-(pyridin-3-yl)ethoxy)-3,4-dihydroisoquinoline-2,6(1H)-dicarboxamide] | 430 | 420 | 720 | 390 |  |  |  | 
Cc1ccc(C2c3cc(OCCc4cccnc4)c(C(=O)O)cc3CCN2C(=O)NCc2cocn2)c(C)c1 (stereo not shown) [Compound 35] | 330 | 430 | 320 | 510 |  |  |  | 
Cc1ccc(C2c3cc(OCCc4cccnc4)c(NC=O)cc3CCN2C(=O)NCc2cocn2)c(C)c1 (stereo not shown) [Compound 36] | 730 | 670 | 990 | 910 |  |  |  | 
CC(=O)Nc1cc2c(cc1OCCc1cccnc1)C(c1ccc(C)cc1C)N(C(=O)NCc1cocn1)CC2 (stereo not shown) [Compound 37] | 810 | 740 | 1210 | 710 |  |  |  | 
Cc1ccc(C2c3cc(OCCc4cccnc4)c(Cl)cc3CCN2C(=O)NCc2cocn2)c(C)c1 (stereo not shown) [Compound 38] | 430 | 420 | 220 | 1090 |  |  |  | 
CC(=O)c1cc2c(cc1OCCc1cccnc1)C(c1ccc(C)cc1C)N(C(=O)NCc1cocn1)CC2 (stereo not shown) [Compound 39] | 340 | 470 | 410 | 520 |  |  |  | 
CC(=O)Cc1cc2c(cc1OCCc1cccnc1)C(c1ccc(C)cc1C)N(C(=O)NCc1cocn1)CC2 (stereo not shown) [Compound 40] | 820 | 810 | 1330 | 960 |  |  |  | 
Cc1ccc(C2c3cc(OCCc4cccnc4)c(CO)cc3CCN2C(=O)NCc2cocn2)c(C)c1 (stereo not shown) [Compound 41] | 1270 | 2110 | 1380 | 1140 |  |  |  | 
Cc1ccc(C2c3cc(OCCc4cccnc4)ccc3CCN2C(=O)NCc2cocn2)c(C)c1 (stereo not shown) [Compound 43] | 740 | 880 | 610 | 910 |  |  |  | 
Cc1ccc(C2c3cc(OCCc4cccnc4)c(F)cc3CCN2C(=O)NCc2cocn2)c(C)c1 (stereo not shown) [Compound 44] | 1720 | 1000 | 990 | 1010 |  |  |  | 
C=CC(=O)Nc1cc2c(cc1OCCc1cccnc1)C(c1ccc(C)cc1C)N(C(=O)NCc1cocn1)CC2 (stereo not shown) [Compound 45] | 790 | 870 | 890 | 990 |  |  |  | 
COc1cc2c(cc1OCCc1cccc(NC(C)=O)c1)C(c1ccc(C)cc1C)N(C(=O)NCc1cocn1)CC2 (stereo not shown) [Compound 47] | 1500 | 1500 | 1500 | 1200 |  |  |  | 
COc1cc2c(cc1OCCc1cnccn1)C(c1ccc(C)cc1C)N(C(=O)NCc1ccon1)CC2 (stereo not shown) [Compound 52] | 600 | 500 | 700 | 600 |  |  |  | 

Second part, the molecule after the results:

IC50 [1, 5] [nM] | IC50 [2, 5] [nM] | IC50 [3, 5] [nM] | IC50 [4, 5] [nM] | IC50 [1, 6] [nM] | IC50 [2, 6] [nM] | IC50 [3, 6] [nM] | IC50 [4, 6] [nM] | Structure (SMILES)
> 1000 | > 1000 | > 1000 | > 1000 |  |  |  |  | COc1cc2c(cc1OCCc1ccccn1)C(c1ccc(C)cc1C)N(C(=O)NCc1cocn1)CC2 (stereo not shown) [Compound 49]
600 | 700 | 500 | 700 |  |  |  |  | COc1cc2c(cc1OCCc1cnccn1)C(c1ccc(C)cc1C)N(C(=O)NCc1cocn1)CC2 (stereo not shown) [Compound 53]
 |  |  |  | 600 | 700 | 500 | 700 | COc1cncc(CCOc2cc3c(cc2OC)CCN(C(=O)NCc2cocn2)C3c2ccc(C)cc2C)n1 (stereo not shown) [Compound 54]
 |  |  |  | 600 | 500 | 600 | 600 | COc1ccc(CCOc2cc3c(cc2OC)CCN(C(=O)NCc2cocn2)C3c2ccc(C)cc2C)cn1 (stereo not shown) [Compound 55]
 |  |  |  | 600 | 500 | 600 | 600 | COc1cc2c(cc1OCCc1cccnc1OC)C(c1ccc(C)cc1C)N(C(=O)NCc1cocn1)CC2 (stereo not shown) [Compound 56]
 |  |  |  | 600 | 500 | 600 | 600 | COc1cc2c(cc1OCCc1ccc(C)nc1)C(c1ccc(C)cc1C)N(C(=O)NCc1cocn1)CC2 (stereo not shown) [Compound 57]
 |  |  |  | 600 | 500 | 600 | 600 | COc1cc2c(cc1OCCc1cccnc1C)C(c1ccc(C)cc1C)N(C(=O)NCc1cocn1)CC2 (stereo not shown) [Compound 58]
 |  |  |  | 600 | 7000 | 500 | 700 | COc1cc2c(cc1OCCc1nccnc1C)C(c1ccc(C)cc1C)N(C(=O)NCc1cocn1)CC2 (stereo not shown) [Compound 59]
 |  |  |  | 600 | 700 | 500 | 700 | COc1cc2c(cc1OCCc1cnc(C)cn1)C(c1ccc(C)cc1C)N(C(=O)NCc1cocn1)CC2 (stereo not shown) [Compound 60]
 |  |  |  | 600 | 700 | 500 | 700 | COc1cc2c(cc1OCCc1cncc(C)n1)C(c1ccc(C)cc1C)N(C(=O)NCc1cocn1)CC2 (stereo not shown) [Compound 61]
 |  |  |  | 600 | 700 | 500 | 700 | COc1cc2c(cc1OCCc1nccnc1OC)C(c1ccc(C)cc1C)N(C(=O)NCc1cocn1)CC2 (stereo not shown) [Compound 62]
 |  |  |  | 600 | 700 | 500 | 700 | COc1cnc(CCOc2cc3c(cc2OC)CCN(C(=O)NCc2cocn2)C3c2ccc(C)cc2C)cn1 (stereo not shown) [Compound 63]
